This note sets out measurements from patent US11872209B2, “Treatment for primary biliary cholangitis” (Zydus Lifesciences Limited, priority 2016, dated 2024).

In this experiment the test system is carbon tetrachloride-induced liver fibrosis. Kind of experiment: Carbon tetrachloride-induced liver fibrosis in male Sprague Dawley rats. Type of experiment: in vivo. Particulars: 0.4 and 4 mg/kg/day orally for 4 weeks with continued CCl4 injections. As to the method:
To assess the effect of Compound of formula (Ia) on the progression of established hepatic fibrosis, fibrosis was induced in rats by twice weekly carbon tetrachloride (CCl4) injections for 2 weeks via an intraperitoneal route. Compound (Ia) (0.4 and 4 mg/kg/day), pioglitazone (10 mg/kg/day), fenofibrate (100 mg/kg/day) or vehicle (Tween 80 and 0.5% sodium salt of carboxymethylcellulose at ratio of 0.5:99.5) was then orally administered for 4 weeks to animals concomitantly with continued CCl4 injections. After 4 weeks of treatment, blood samples were collected 1 h post-dose, for estimation of non-fasted serum ALT and other serum parameters. All the animals were sacrificed; liver was quickly removed, weighed and fixed in 10% formalin for histological analysis or snap frozen in liquid nitrogen for other assays. Light microscopic examination of liver tissue was performed using standard hematoxylin and eosin (H&E) staining. Hepatic fibrosis was accessed by Masson's trichrome staining method.

“Also recorded” adds a separate entry of the source. Where a name gives a salt, the structure may show the parent alone.

Take `CCO[C@@H](Cc1ccc(OCCn2c(C)ccc2-c2ccc(SC)cc2)cc1)C(=O)O` [Compound (Ia), saroglitazar magnesium salt]: for the setting “after 2 weeks of CCl4, listed as Compound of formula (Ia)”, the “Effect on CCl4-induced liver fibrosis” value is “protected the animals from further deterioration and exhibited a dose-dependent reversal of CCl4-induced liver fibrosis; also recorded: protected the animals from further deterioration and showed dose dependent reversal of CCl4-induced liver fibrosis”. Also, the “Microscopic quantification of fibrosis (H&E and Masson's trichrome staining of liver tissues)” value (FIG. 1) is “stopped the progression of established liver fibrosis and accelerated liver recovery”.
